Experimental data: PubChem BioAssay (NCI)
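At the GI50, growth is halved. TGI marks complete inhibition of growth.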

What was measured:
Experiment in all cases: growth of human tumour cells (NCI), 384-well format
NCI-H322M lung = tested on: NCI-H322M lung
COLO 205 colon = tested on: COLO 205 colon
PC-3 prostate = tested on: PC-3 prostate
NCI/ADR-RES ovarian = tested on: NCI/ADR-RES ovarian
OVCAR-8 ovarian = tested on: OVCAR-8 ovarian
SW-620 colon = tested on: SW-620 colon
TK-10 renal = tested on: TK-10 renal
SK-MEL-2 melanoma = tested on: SK-MEL-2 melanoma
HOP-92 NSCLC = tested on: HOP-92 NSCLC
NCI-H522 lung = tested on: NCI-H522 lung
KM12 colon = tested on: KM12 colon
MOLT-4 leukemia = tested on: MOLT-4 leukemia
A549 NSCLC = tested on: A549 NSCLC
SK-OV-3 ovarian = tested on: SK-OV-3 ovarian
HCT-15 colon = tested on: HCT-15 colon
CAKI-1 renal = tested on: CAKI-1 renal
HT29 colon = tested on: HT29 colon
NCI-H23 lung = tested on: NCI-H23 lung
T-47D breast = tested on: T-47D breast
UACC-257 melanoma = tested on: UACC-257 melanoma
MDA-MB-468 breast = tested on: MDA-MB-468 breast
NCI-H460 NSCLC = tested on: NCI-H460 NSCLC
IGROV1 ovarian = tested on: IGROV1 ovarian
SF-539 CNS = tested on: SF-539 CNS
MCF7 breast = tested on: MCF7 breast
ACHN renal = tested on: ACHN renal
OVCAR-5 ovarian = tested on: OVCAR-5 ovarian
MDA-MB-435 melanoma = tested on: MDA-MB-435 melanoma
SN12C renal = tested on: SN12C renal
CCRF-CEM leukemia = tested on: CCRF-CEM leukemia
RXF 393 renal = tested on: RXF 393 renal
SNB-19 CNS = tested on: SNB-19 CNS
SK-MEL-28 melanoma = tested on: SK-MEL-28 melanoma
M14 melanoma = tested on: M14 melanoma
786-0 renal = tested on: 786-0 renal
SK-MEL-5 melanoma = tested on: SK-MEL-5 melanoma
HCT-116 colon = tested on: HCT-116 colon
OVCAR-3 ovarian = tested on: OVCAR-3 ovarian
SF-295 CNS = tested on: SF-295 CNS
HOP-62 NSCLC = tested on: HOP-62 NSCLC
UACC-62 melanoma = tested on: UACC-62 melanoma
DU-145 prostate = tested on: DU-145 prostate
RPMI-8226 leukemia = tested on: RPMI-8226 leukemia
A498 renal = tested on: A498 renal
BT-549 breast = tested on: BT-549 breast
U251 glioblastoma = tested on: U251 glioblastoma
SR leukemia = tested on: SR leukemia
LOX IMVI melanoma = tested on: LOX IMVI melanoma
SF-268 CNS = tested on: SF-268 CNS
K-562 leukemia = tested on: K-562 leukemia
NCI-H226 lung = tested on: NCI-H226 lung
MALME-3M melanoma = tested on: MALME-3M melanoma
UO-31 renal = tested on: UO-31 renal
HL-60(TB) leukemia = tested on: HL-60(TB) leukemia
OVCAR-4 ovarian = tested on: OVCAR-4 ovarian
MDA-MB-231 breast = tested on: MDA-MB-231 breast

CC(C)(/C=C(\C#N)C(=O)N1CCC[C@@H](n2nc(-c3ccc(Oc4ccccc4)cc3F)c3c(N)ncnc32)C1)N1CCN(C2COC2)CC1
GI50 (NCI-H322M lung): 6.84 µM
TGI (NCI-H322M lung): 23.2 µM
GI50 (COLO 205 colon): 1.63 µM
TGI (COLO 205 colon): 5.8 µM
GI50 (PC-3 prostate): 3.73 µM
TGI (PC-3 prostate): 13.8 µM
GI50 (NCI/ADR-RES ovarian): 13.8 µM
TGI (NCI/ADR-RES ovarian): 27.1 µM
GI50 (OVCAR-8 ovarian): 5.91 µM
TGI (OVCAR-8 ovarian): 18 µM
GI50 (SW-620 colon): 1.87 µM
TGI (SW-620 colon): 3.63 µM
GI50 (TK-10 renal): 6.64 µM
TGI (TK-10 renal): 18.9 µM
GI50 (SK-MEL-2 melanoma): 0.0857 µM
TGI (SK-MEL-2 melanoma): 1.08 µM
GI50 (HOP-92 NSCLC): 1.38 µM
TGI (HOP-92 NSCLC): 3.76 µM
GI50 (NCI-H522 lung): 0.164 µM
TGI (NCI-H522 lung): 1.36 µM
GI50 (KM12 colon): 0.712 µM
TGI (KM12 colon): 2.47 µM
GI50 (MOLT-4 leukemia): 0.157 µM
TGI (MOLT-4 leukemia): 0.46 µM
GI50 (A549 NSCLC): 3.55 µM
TGI (A549 NSCLC): 13.2 µM
GI50 (SK-OV-3 ovarian): 1.23 µM
TGI (SK-OV-3 ovarian): 3 µM
GI50 (HCT-15 colon): 4.52 µM
TGI (HCT-15 colon): 15.1 µM
GI50 (CAKI-1 renal): 3.41 µM
TGI (CAKI-1 renal): 9.34 µM
GI50 (HT29 colon): 1.73 µM
TGI (HT29 colon): 3.48 µM
GI50 (NCI-H23 lung): 3.51 µM
TGI (NCI-H23 lung): 9.62 µM
GI50 (T-47D breast): 2.33 µM
TGI (T-47D breast): 11 µM
GI50 (UACC-257 melanoma): 1.49 µM
TGI (UACC-257 melanoma): 3.81 µM
GI50 (MDA-MB-468 breast): 0.239 µM
TGI (MDA-MB-468 breast): 1.16 µM
GI50 (NCI-H460 NSCLC): 1.87 µM
TGI (NCI-H460 NSCLC): 3.72 µM
GI50 (IGROV1 ovarian): 2.94 µM
TGI (IGROV1 ovarian): 9.69 µM
GI50 (SF-539 CNS): 2.08 µM
TGI (SF-539 CNS): 5.39 µM
GI50 (MCF7 breast): 2.28 µM
TGI (MCF7 breast): 10.4 µM
GI50 (ACHN renal): 9.03 µM
TGI (ACHN renal): 21.2 µM
GI50 (OVCAR-5 ovarian): 10.5 µM
TGI (OVCAR-5 ovarian): 22.9 µM
GI50 (MDA-MB-435 melanoma): 0.0551 µM
TGI (MDA-MB-435 melanoma): 0.448 µM
GI50 (SN12C renal): 2.82 µM
TGI (SN12C renal): 7.62 µM
GI50 (CCRF-CEM leukemia): 1.49 µM
TGI (CCRF-CEM leukemia): 2.86 µM
GI50 (RXF 393 renal): 1.19 µM
TGI (RXF 393 renal): 3.04 µM
GI50 (SNB-19 CNS): 3.69 µM
TGI (SNB-19 CNS): 12.1 µM
GI50 (SK-MEL-28 melanoma): 1.86 µM
TGI (SK-MEL-28 melanoma): 5.23 µM
GI50 (M14 melanoma): 2.08 µM
TGI (M14 melanoma): 5.29 µM
GI50 ([…]-0 renal): 3.07 µM
TGI (786-0 renal): 10.4 µM
GI50 (SK-MEL-5 melanoma): 1.41 µM
TGI (SK-MEL-5 melanoma): 2.92 µM
GI50 (HCT-116 colon): 2.9 µM
TGI (HCT-116 colon): 10.6 µM
GI50 (OVCAR-3 ovarian): 0.289 µM
TGI (OVCAR-3 ovarian): 1.6 µM
GI50 (SF-295 CNS): 9.51 µM
TGI (SF-295 CNS): 21.5 µM
GI50 (HOP-62 NSCLC): 2.47 µM
TGI (HOP-62 NSCLC): 5.82 µM
GI50 (UACC-62 melanoma): 1.12 µM
TGI (UACC-62 melanoma): 3.24 µM
GI50 (DU-145 prostate): 9.84 µM
TGI (DU-145 prostate): 29.1 µM
GI50 (RPMI-8226 leukemia): 1.14 µM
TGI (RPMI-8226 leukemia): 2.38 µM
GI50 (A498 renal): 2.39 µM
TGI (A498 renal): 5.72 µM
GI50 (BT-549 breast): 1.21 µM
TGI (BT-549 breast): 2.78 µM
GI50 (U251 glioblastoma): 2.6 µM
TGI (U251 glioblastoma): 8.45 µM
GI50 (SR leukemia): 0.0378 µM
TGI (SR leukemia): 0.208 µM
GI50 (LOX IMVI melanoma): 2.3 µM
TGI (LOX IMVI melanoma): 4.09 µM
GI50 (SF-268 CNS): 2.29 µM
TGI (SF-268 CNS): 7.3 µM
GI50 (K-562 leukemia): 1.24 µM
TGI (K-562 leukemia): 2.82 µM
GI50 (NCI-H226 lung): 2.18 µM
TGI (NCI-H226 lung): 5.42 µM
GI50 (MALME-3M melanoma): 1.28 µM
TGI (MALME-3M melanoma): 5.26 µM
GI50 (UO-31 renal): 7.98 µM
TGI (UO-31 renal): 20.3 µM
GI50 (HL-60(TB) leukemia): 1.5 µM
TGI (HL-60(TB) leukemia): 2.89 µM
GI50 (OVCAR-4 ovarian): 1.35 µM
TGI (OVCAR-4 ovarian): 7.72 µM
GI50 (MDA-MB-231 breast): 2.54 µM
TGI (MDA-MB-231 breast): 7.28 µM
